Test results from paper PMC4786998 (Journal of Hematology & Oncology, 2016).
Like-named read-outs stand apart in the source and are kept apart here.

Experiments:
[1] = Phase I safety/tolerability (adverse events, DLT, MTD) in patients with advanced solid tumors
Procedure: The study was divided into two parts: dose escalation and dose expansion. Dose escalation used a traditional 3 + 3 dose-escalation design. […] The first patient in each dose-escalation cohort was evaluated for dose-limiting toxicities (DLTs) in cycle 1, day 4. If no DLTs were reported by the investigator, the remaining patients in the cohort were enrolled. […] The protocol allowed that and subsequent doses to be expanded to enroll an additional three patients who were known to have tumors tested positive for ALK abnormalities once safety was established in the first three subjects for that cohort.

[2] = Electrocardiogram QTcF in phase I patients; settings: 325-mg dose
Procedure: The safety and tolerability of […] were assessed by adverse events (AEs) (graded based on NCI-CTCAE v4.03), laboratory tests, vital signs, electrocardiograms, and clinical observations.

[3] = Plasma pharmacokinetics in phase I patients; format: in vivo, human; settings: for AUC: read-out: AUC24
Procedure: On day 1, the following PK parameters were assessed for […]: area under the plasma concentration-time curve (AUC24), AUClast, maximum concentration observed (Cmax), and time of maximum concentration observed (tmax). On day 28, [NT], Cmax, Ctrough, tmax, CL/F, Vz/F, and t1⁄2, calculated based on the ratio of accumulation for AUC (day 28 AUCtau/day 1 AUC24) (Rac [AUC]), were assessed. Cumulative effects on steady-state […] plasma levels were assessed by comparing Ctrough on day 28 divided by Ctrough on days 8, 15, and 22. For continuous variables, descriptive statistics included the number of patients, mean (standard deviation), median, and range. For antitumor assessments, the number and percentage (95 % CI) of patients with CR, PR, SD, and PD were summarized. The overall best tumor response was also summarized. For the objective response rates, the exact confidence interval of response was calculated only for the dose-expansion cohort using the Clopper-Pearson method. For continuous PK parameters, the coefficient of variation was calculated. For Cmax and AUC, geometric mean was calculated. All data processing and analyses were performed using SAS® Version 9.1.3 or higher. The safety analysis set was defined as patients who received at least one […] dose. The PK analysis set was defined as patients who received at least one dose of […] and provided the values of drug concentrations for at least one time point.

[4] = test system: crizotinib-resistant ALK-positive tumors; assay: Antitumor response by RECIST v1.1 in the dose-expansion cohort; format: in vivo, human
Excerpt: Solid tumor assessment was based on Response Evaluation Criteria in Solid Tumors (RECIST) v1.1. For target lesions, complete response (CR) was defined as disappearance of all target lesions and pathologic lymph nodes with a reduction in short axis to <10 mm. Partial response (PR) was defined as a ≥30 % decrease in the sum of diameters of the target lesions, taking as reference the baseline sum of diameters. Progressive disease (PD) was defined as a ≥20 % increase in the sum of diameters from the smallest sum on the study and the sum of diameters to be ≥5 mm from the smallest sum on study. Stable disease (SD) was defined as neither PR nor PD.
For patients in the dose-expansion cohort with evaluable tumor diameter, the best tumor reduction was calculated as the decrease from baseline in the sum of the target lesions.
For continuous variables, descriptive statistics included the number of patients, mean (standard deviation), median, and range. For antitumor assessments, the number and percentage (95 % CI) of patients with CR, PR, SD, and PD were summarized. The overall best tumor response was also summarized. For the objective response rates, the exact confidence interval of response was calculated only for the dose-expansion cohort using the Clopper–Pearson method. For continuous PK parameters, the coefficient of variation was calculated. For Cmax and AUC, geometric mean was calculated. All data processing and analyses were performed using SAS® Version 9.1.3 or higher.

[5] = test system: panel of 86 tyrosine kinases; settings: 1 μmol/L; cited from earlier work
[6] = molecular target: wild-type ALK kinase domain; settings: cited from earlier work
[7] = molecular target: L1196M ALK kinase domain; settings: cited from earlier work
[8] = test system: wild-type ALK and EML4-ALK L1196M xenograft tumors; settings: mice, subcutaneous and intracranial xenografts, compared with crizotinib; cited from earlier work
[9] = human, plasma, oral, 25 mg, cycle 1, day 1, 25 mg once daily, dose-escalation cohort, n = 4, mean (standard deviation)
[10] = human, plasma, oral, 25 mg, cycle 1, day 28, 25 mg once daily, dose-escalation cohort, n = 3, mean (standard deviation)
[11] = human, plasma, oral, 50 mg, cycle 1, day 1, 50 mg once daily, dose-escalation cohort, n = 3, mean (standard deviation)
[12] = human, plasma, oral, 50 mg, cycle 1, day 28, 50 mg once daily, dose-escalation cohort, n = 3, mean (standard deviation)
[13] = human, plasma, oral, 75 mg, cycle 1, day 1, 75 mg once daily, dose-escalation cohort, n = 3, mean (standard deviation)
[14] = human, plasma, oral, 75 mg, cycle 1, day 28, 75 mg once daily, dose-escalation cohort, n = 3, mean (standard deviation)
[15] = human, plasma, oral, 125 mg, cycle 1, day 1, 125 mg once daily, dose-escalation cohort, n = 4, mean (standard deviation)
[16] = human, plasma, oral, 125 mg, cycle 1, day 28, 125 mg once daily, dose-escalation cohort, n = 1
[17] = human, plasma, oral, 200 mg once daily, cycle 1, day 28, 200 mg once daily, dose-escalation cohort, n = 3, mean (standard deviation)
[18] = human, plasma, oral, 200 mg, cycle 1, day 1, 200 mg once daily, dose-escalation cohort, n = 4, mean (standard deviation)
[19] = human, plasma, oral, 325 mg once daily, cycle 1, day 28, 325 mg once daily, dose-escalation cohort, n = 3, mean (standard deviation)
[20] = human, plasma, oral, 325 mg, cycle 1, day 1, 325 mg once daily, dose-escalation cohort, n = 3, mean (standard deviation)
[21] = human, plasma, oral, 800 mg, cycle 1, day 1, 800 mg once daily, dose-escalation cohort, n = 3, mean (standard deviation)
[22] = human, plasma, oral, 800 mg, cycle 1, day 28, 800 mg once daily, dose-escalation cohort, n = 1
[23] = expansion cohort, 525 mg, n = 16

In the case of `COc1cc(N2CCC(N3CCN(C)CC3)CC2)ccc1Nc1ncnc(Nc2ccccc2S(=O)(=O)C(C)C)n1` [ASP3026], the deaths on study ([1]; all due to PD, not related to the study drug) is reported as “three”, the “changes in clinical laboratory parameters or vital signs over time” value ([1]; human, in vivo) is reported as “no meaningful changes” and the “treatment-related adverse event: fatigue” value ([1]; human, in vivo) is reported as 35%. For the same molecule, the “treatment-related adverse event: nausea” value ([1]; human, in vivo) was 38%, the “treatment-related adverse event: vomiting” value ([1]; human, in vivo) was 35% and the dose-limiting toxicities observed ([1]; human, in vivo, 28 days) was “Grade 3 rash and elevated transaminase concentrations”. The “QTcF, mean (standard deviation) maximal increase” value [2] was 47.0 (10.7) ms, the “slope estimate (95 % CI) of dose-normalized AUClast versus dose” value ([3]; human, in vivo) was 0.090 (−0.097, 0.277) and the “slope estimate (95 % CI) of dose-normalized Cmax versus dose” value ([3]; human, in vivo) was 0.170 (−0.018, 0.358). For the same molecule, the “t ½” value ([3]; human, in vivo) was 24.9 (12.7) h, the “time to steady-state plasma concentrations” value ([3]; human, in vivo) was at most 8 days and the half-life ([3]; human, in vivo, accumulation half-life, mean (standard deviation)) was 25 h. For the same molecule, the half-life ([3]; human, in vivo, half-life, range) was 22 to 85 h, the half-life ([3]; human, in vivo, median half-life) was 35 h and the Tmax ([3]; human, in vivo, po, tmax) was about 3 h. The Tmax ([3]; human, in vivo, t max) was 4 h, the half-life ([3]; human, in vivo, t ½) was 27.3 h and the Cmax [3, 9] was 32 ng/mL. It also gave an AUC [3, 9] of 378 ng·h/mL, a Tmax ([3]; human, plasma, oral, 25 mg, cycle 1, day 1, 25 mg once daily, dose-escalation cohort, n = 4, median (range), read-out: t max) of 3 h and a Cmax [3, 10] of 68.4 ng/mL. It also gave a half-life ([3]; human, plasma, oral, 25 mg, cycle 1, day 28, 25 mg once daily, dose-escalation cohort, n = 3, mean (standard deviation), calculated from accumulation ratio, read-out: t ½ (converted)) of 36.6 h, an AUC [3, 10] of 1040 ng·h/mL and a Tmax ([3]; human, plasma, oral, 25 mg, cycle 1, day 28, 25 mg once daily, dose-escalation cohort, n = 3, median (range), read-out: t max) of 3 h. It also gave a Cmax [3, 11] of 99.7 ng/mL, an AUC [3, 11] of 846 ng·h/mL and a Tmax ([3]; human, plasma, oral, 50 mg, cycle 1, day 1, 50 mg once daily, dose-escalation cohort, n = 3, median (range), read-out: t max) of 3 h. The Cmax [3, 12] was 143 ng/mL, the half-life ([3]; human, plasma, oral, 50 mg, cycle 1, day 28, 50 mg once daily, dose-escalation cohort, n = 3, mean (standard deviation), calculated from accumulation ratio, read-out: t ½ (converted)) was 35.2 h and the AUC [3, 12] was 2110 ng·h/mL. For the same molecule, the Tmax ([3]; human, plasma, oral, 50 mg, cycle 1, day 28, 50 mg once daily, dose-escalation cohort, n = 3, median (range), read-out: t max) was 3 h, the Cmax [3, 13] was 87.6 ng/mL and the AUC [3, 13] was 1160 ng·h/mL. The Tmax ([3]; human, plasma, oral, 75 mg, cycle 1, day 1, 75 mg once daily, dose-escalation cohort, n = 3, median (range), read-out: t max) was 8.2 h, the Cmax [3, 14] was 352 ng/mL and the half-life ([3]; human, plasma, oral, 75 mg, cycle 1, day 28, 75 mg once daily, dose-escalation cohort, n = 3, mean (standard deviation), calculated from accumulation ratio, read-out: t ½ (converted)) was 84.7 h. For the same molecule, the AUC [3, 14] was 5630 ng·h/mL, the Tmax ([3]; human, plasma, oral, 75 mg, cycle 1, day 28, 75 mg once daily, dose-escalation cohort, n = 3, median (range), read-out: t max) was 3 h and the Cmax [3, 15] was 262 ng/mL. For the same molecule, the AUC [3, 15] was 3000 ng·h/mL, the Tmax ([3]; human, plasma, oral, 125 mg, cycle 1, day 1, 125 mg once daily, dose-escalation cohort, n = 4, median (range), read-out: t max) was 5 h and the Cmax [3, 16] was 668 ng/mL. For the same molecule, the half-life ([3]; human, plasma, oral, 125 mg, cycle 1, day 28, 125 mg once daily, dose-escalation cohort, n = 1, calculated from accumulation ratio, read-out: t ½ (converted)) was 36.7 h, the AUC [3, 16] was 8970 ng·h/mL and the Tmax ([3]; human, plasma, oral, 125 mg, cycle 1, day 28, 125 mg once daily, dose-escalation cohort, n = 1, read-out: t max) was 2.1 h. For the same molecule, the Cmax [3, 17] was 682 ng/mL, the half-life ([3]; human, plasma, oral, 200 mg once daily, cycle 1, day 28, 200 mg once daily, dose-escalation cohort, n = 3, mean (standard deviation), calculated from accumulation ratio, read-out: t ½ (converted)) was 21.9 h and the AUC [3, 17] was 7620 ng·h/mL. It also gave a Tmax ([3]; human, plasma, oral, 200 mg once daily, cycle 1, day 28, 200 mg once daily, dose-escalation cohort, n = 3, median (range), read-out: t max) of 3 h, a Cmax [3, 18] of 490 ng/mL and an AUC [3, 18] of 4580 ng·h/mL. For the same molecule, the Tmax ([3]; human, plasma, oral, 200 mg, cycle 1, day 1, 200 mg once daily, dose-escalation cohort, n = 4, median (range), read-out: t max) was 2.5 h, the Cmax [3, 19] was 1160 ng/mL and the half-life ([3]; human, plasma, oral, 325 mg once daily, cycle 1, day 28, 325 mg once daily, dose-escalation cohort, n = 3, mean (standard deviation), calculated from accumulation ratio, read-out: t ½ (converted)) was 26.3 h. For the same molecule, the AUC [3, 19] was 18800 ng·h/mL, the Tmax ([3]; human, plasma, oral, 325 mg once daily, cycle 1, day 28, 325 mg once daily, dose-escalation cohort, n = 3, median (range), read-out: t max) was 4 h and the Cmax [3, 20] was 586 ng/mL. For the same molecule, the AUC [3, 20] was 7950 ng·h/mL, the Tmax ([3]; human, plasma, oral, 325 mg, cycle 1, day 1, 325 mg once daily, dose-escalation cohort, n = 3, median (range), read-out: t max) was 3 h and the Cmax [3, 21] was 1630 ng/mL. The AUC [3, 21] was 21800 ng·h/mL, the Tmax ([3]; human, plasma, oral, 800 mg, cycle 1, day 1, 800 mg once daily, dose-escalation cohort, n = 3, median (range), read-out: t max) was 3 h and the Cmax [3, 22] was 4850 ng/mL. It also gave a half-life ([3]; human, plasma, oral, 800 mg, cycle 1, day 28, 800 mg once daily, dose-escalation cohort, n = 1, calculated from accumulation ratio, read-out: t ½ (converted)) of 37.9 h, an AUC [3, 22] of 78100 ng·h/mL and a Tmax ([3]; human, plasma, oral, 800 mg, cycle 1, day 28, 800 mg once daily, dose-escalation cohort, n = 1, read-out: t max) of 4 h. For the same molecule, the “linearity and dose proportionality of exposure (Cmax and AUClast)” value ([3]; multiple dosing (day 28), 25- to 800-mg dose range) was “both linear and dose-proportional exposure”, the “best overall response: stable disease rate” value ([4]; 525 mg, 16 crizotinib-resistant ALK-positive patients) was 44% and the “best overall response: partial response rate” value ([4]; 525 mg, 16 crizotinib-resistant ALK-positive patients (15 NSCLC, 1 neuroblastoma)) was 50%. The “objective (overall) response rate (CR + PR)” value ([4]; 525 mg, 16 crizotinib-resistant ALK-positive patients, 95 % CI 25–75 %) was 50%, the stable disease rate ([4]; 525 mg, restricted to ALK-positive NSCLC patients, 6/15) was 40% and the partial response rate ([4]; 525 mg, restricted to ALK-positive NSCLC patients, 8/15) was 53%. The median progression-free survival ([4]; ALK-positive patients, 95 % CI 4–9) was 6 months, the “duration of response, range” value ([4]; dose-expansion cohort, 525 mg) was 27 to 338 days and the “Best overall response: complete response” value [4, 23] was 0 n (%). For the same molecule, the “Best overall response: partial response” value [4, 23] was 8 (50) n (%), the “Best overall response: progressive disease” value [4, 23] was 0 n (%) and the “Best overall response: stable disease” value [4, 23] was 7 (44) n (%). For the same molecule, the “Best overall response: unable to evaluate” value [4, 23] was 1 (6) n (%), the “Objective response (complete response + partial response)” value ([4]; expansion cohort, 525 mg, n = 16, 95 % CI 25–75 %) was 8 (50) n (%) and the “number of tyrosine kinases inhibited by more than 50 %” value [5] was 11. The IC50 [6] was 10 nM, the IC50 [7] was 32 nM and the “antitumor activity in xenograft tumors” value [8] was “potent antitumor activity”.
